# Assay results reported in US8778958B2, “Synthesis of metabolically stable agents for alcohol and drug abuse” (priority 2008, dated 2014).
# Like-named read-outs stand apart in the source and are kept apart here.
# Tests used:
# μ-opioid receptor [1] = biological target: T1, μ-opioid receptor (Mus musculus, UniProt P42866); experiment: biochemical; design: species or system human
# T1 construct: FLAG; expressed in transfected cells
# κ-opioid receptor [2] = biological target: T2, κ-opioid receptor (Mus musculus, UniProt P33534); experiment: biochemical; design: species or system human
# T2 construct: FLAG; expressed in transfected cells
# [3] = system: rats trained to self-administer a 10% (w/v) ethanol solution; experiment: Operant oral ethanol self-administration; assay type: in vivo, rat; conditions: for Overall effect on operant self-administration of 10% ethanol: ANOVA, treatment 30 min prior to testing; for ED50: Rattus norvegicus, po, read-out: ED50 for ethanol self-administration
# Method: (§1) Ethanol or saccharin (SACC) self-administration training was conducted in standard operant cages (Coulbourn Instruments, PA) located in sound-attenuated, ventilated cubicles. Two 35-ml syringes dispensed either ethanol/SACC or water through plastic tubing into two stainless steel drinking cups mounted 4 cm above the grid floor and centered on the front panel of each chamber. Each drinking cup held 2 reinforcer deliveries (0.1 ml fluid/reinforcer). Two retractable levers were located 4.5 cm to either side of the drinking cups. Fluid delivery and recording of operant responses were controlled by a microcomputer. Briefly, animals were trained to voluntarily self-administer 10% (w/v) ethanol (n=10) or saccharin (n=6) by the oral route using the saccharin fadeout method^39 and were tested for their response for ethanol or saccharin solution in a two-lever free choice situation. Once baseline ethanol and saccharin intake were achieved (i.e., when responding across 3 consecutive days varied less than 20% and response rates correspond to pharmacologically relevant blood alcohol levels (BALs)), dose response testing for each compound commenced. To allow for a complete dissipation of any carry-over effects, a one week washout period, where rats were re-baselined during daily 30 min operant sessions, occurred between testing of each compound.
# (§2) Data were collected on-line simultaneously from multiple operant chambers. Results of the operant procedure are reported as mean cumulative number of bar presses for ethanol or saccharin. In general, tests for homogeneity of variance were first performed on the data. […] Data were analyzed using the StatView statistical package on a PC-compatible computer. Mixed-design ANOVAs were used with drug treatments as a within-subjects factor (i.e., repeated measures design for drug treatment). A priori analysis examining individual drug doses to vehicle control dose was conducted using paired t-tests. Significant drug effects were defined as having p<0.05 compared to vehicle-treated rats.
# [4] = system: rats trained to orally self-administer a 0.025% saccharin solution; experiment: Operant oral saccharin self-administration (control); assay type: in vivo, rat; conditions: for Overall effect on operant self-administration of saccharin vs vehicle: ANOVA
# Method: as §1, §2
# [5] = biological target: T3, NOP (nociceptin) receptor (Homo sapiens, UniProt P41146)
# [6] = Metabolic stability, human liver S-9; conditions: for Half Life, Human liver preparation: 40 μM test compound, NADPH-generating system, NC = No Change; for half-life at 40 μM: human, s9, pH 7.4
# Method: (§3) A typical assay mixture contained rat or mouse liver microsomes or human liver S-9 (0.4-0.5 mg of protein), 100 μM potassium phosphate buffer (pH 7.4), 40 μM test compound, an NADPH-generating system consisting of 0.5 mM NADP^+, 0.5 mM glucose-6-phosphate, 5 IU/mL glucose-6-phosphate dehydrogenase, 1 mg/mL DETAPAC and 7 mM MgCl2 for a final incubation volume of 0.1 mL^23. […] After centrifugation at 13,000 rpm for 5 min, the organic fraction was collected and the solvent was removed with a stream of argon. The residue was reconstituted in methanol (200 L), centrifuged at 13,000 rpm for 5 min and the supernatant was analyzed by high-performance liquid chromatography with an Axxi-chrom (straight-phase) silica column (4.6 mm×250 mm, 5 m) or with a Supelco (reverse-phase) HS F5 pentafluorophenyl column (4.6 mm×250 mm, 5 m) as described above.
# [7] = Metabolic stability, mouse liver microsomes; conditions: for Half Life, Mouse liver preparation: 40 μM test compound, NADPH-generating system, NC = No Change; for half-life at 40 μM: mouse, microsomes, pH 7.4
# Method: as §3
# Solubility in H2O = conditions: for Solubility in H2O: salt as labelled
# [8] = system: rats self-administering 0.5 mg/kg/injection of cocaine; experiment: Cocaine self-administration, short (ShA) and long access (LgA)
# δ-opioid receptor [9] = biological target: T4, δ-opioid receptor (Mus musculus, UniProt P32300); experiment: biochemical; design: species or system human
# T4 construct: hemagglutinin (HA); expressed in transfected cells
# μ-opioid receptor [10] = biological target: T1, μ-opioid receptor; experiment: biochemical; assay type: biochemical, human; conditions: read-out: Emax, μ, inhibition of basal [35S]GTPγS binding
# δ-opioid receptor [11] = biological target: T4, δ-opioid receptor; experiment: biochemical; assay type: biochemical, human; conditions: read-out: Emax, δ, inhibition of basal [35S]GTPγS binding
# κ-opioid receptor [12] = system: T5, κ-opioid receptor; experiment: biochemical; assay type: biochemical, human; conditions: read-out: Emax, κ, inhibition of basal [35S]GTPγS binding
# T5 construct: FLAG; expressed in transfected cells
# [13] = biological target: T3, NOP (nociceptin) receptor; experiment: Inhibition of basal [35S]GTPγS binding (inverse agonism), NOP; assay type: biochemical; design: FLAG; expressed in transfected cells
# [14] = read-out: Emax, μ, stimulation of [35S]GTPγS binding
# [15] = doses of 0.0125, 0.025 and 0.05 mg/kg
# [16] = read-out: Emax, δ, stimulation of [35S]GTPγS binding
# T4 sequence (P32300 whole entry): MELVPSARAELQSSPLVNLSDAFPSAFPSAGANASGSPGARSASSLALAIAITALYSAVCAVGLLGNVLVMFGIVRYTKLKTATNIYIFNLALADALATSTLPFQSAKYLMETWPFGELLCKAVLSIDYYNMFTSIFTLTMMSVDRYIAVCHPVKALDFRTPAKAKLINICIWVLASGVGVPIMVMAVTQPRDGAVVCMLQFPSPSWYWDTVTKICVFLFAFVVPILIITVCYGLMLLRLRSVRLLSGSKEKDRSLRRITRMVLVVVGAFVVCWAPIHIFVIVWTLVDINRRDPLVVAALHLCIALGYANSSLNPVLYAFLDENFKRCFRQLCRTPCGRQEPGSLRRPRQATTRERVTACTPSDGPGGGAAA
# T3 sequence (P41146 whole entry): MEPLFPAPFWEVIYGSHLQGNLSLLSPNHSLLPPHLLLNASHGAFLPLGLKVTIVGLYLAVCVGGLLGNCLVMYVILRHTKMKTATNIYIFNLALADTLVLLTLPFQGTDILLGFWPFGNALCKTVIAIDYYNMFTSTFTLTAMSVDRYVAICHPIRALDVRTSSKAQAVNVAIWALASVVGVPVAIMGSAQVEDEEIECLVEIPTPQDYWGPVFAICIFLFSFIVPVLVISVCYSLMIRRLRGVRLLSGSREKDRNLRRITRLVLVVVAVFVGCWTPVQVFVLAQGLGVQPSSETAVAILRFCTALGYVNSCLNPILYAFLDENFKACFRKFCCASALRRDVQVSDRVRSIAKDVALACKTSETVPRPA
# T1 sequence (P42866 whole entry): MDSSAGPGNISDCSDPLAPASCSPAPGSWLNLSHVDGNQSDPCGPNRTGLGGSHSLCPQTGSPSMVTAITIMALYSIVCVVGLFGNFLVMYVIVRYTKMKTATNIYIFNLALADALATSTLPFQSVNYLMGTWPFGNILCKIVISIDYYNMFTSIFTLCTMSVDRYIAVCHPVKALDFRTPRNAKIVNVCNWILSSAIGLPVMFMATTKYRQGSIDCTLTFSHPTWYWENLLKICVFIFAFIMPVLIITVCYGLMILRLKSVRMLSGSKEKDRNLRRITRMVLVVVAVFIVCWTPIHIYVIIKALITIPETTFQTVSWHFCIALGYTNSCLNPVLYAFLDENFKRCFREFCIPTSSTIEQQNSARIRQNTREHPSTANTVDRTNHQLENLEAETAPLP
# T2 sequence (P33534 whole entry): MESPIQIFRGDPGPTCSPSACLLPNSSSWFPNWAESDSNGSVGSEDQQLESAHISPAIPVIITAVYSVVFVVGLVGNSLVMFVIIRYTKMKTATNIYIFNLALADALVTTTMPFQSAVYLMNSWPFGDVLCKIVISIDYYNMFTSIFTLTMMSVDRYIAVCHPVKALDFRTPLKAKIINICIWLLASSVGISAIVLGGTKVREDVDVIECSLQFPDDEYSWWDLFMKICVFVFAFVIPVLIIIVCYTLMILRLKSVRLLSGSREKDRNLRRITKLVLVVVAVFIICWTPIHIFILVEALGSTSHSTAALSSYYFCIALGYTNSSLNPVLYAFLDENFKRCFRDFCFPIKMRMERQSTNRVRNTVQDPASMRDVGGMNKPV
# T5 sequence (P33534 whole entry): as above
compound,measurement,setting,value
"O=C(N[C@@H]1CC[C@@]2(O)[C@H]3Cc4ccc(O)c5c4[C@@]2(CCN3CC2CC2)[C@H]1O5)c1ccc(C(F)(F)F)cc1 [Compound 5, 6-β-(4′-Trifluoromethyl)benzamido-14-hydroxy-17-(cyclopropylmethyl)nordesmorphine]",Emax,μ-opioid receptor [1]; [14],28 to 63%
same,Emax,"κ-opioid receptor [2]; read-out: Emax, κ, stimulation of [35S]GTPγS binding",28 to 63%
same,Overall effect on operant self-administration of 10% ethanol,[3],had an overall effect
same,"Post hoc analysis vs vehicle, operant self-administration of 10% ethanol",[3]; [15],significantly inhibited
same,Overall effect on operant self-administration of saccharin vs vehicle,[4],did have an overall effect
same,"Post-hoc analysis vs vehicle, self-administration of saccharin","[4]; […] for 5, 0.05 mg/kg for 6, the only such doses",significantly inhibited
same,melting point,,157.5 °C
same,Emax,[5],0%
same,"Half Life, Human liver preparation",[6],remained unchanged
same,"Half Life, Mouse liver preparation",[7],remained unchanged
"O=C(N[C@@H]1CC[C@@]2(O)[C@H]3Cc4ccc(O)c5c4[C@@]2(CCN3CC2CC2)[C@H]1O5)c1ccc(Br)cc1.O=C(O)C(=O)O [Compound 6-oxalate, 6-β-(4′-Bromo)benzamido-14-hydroxy-17-(cyclopropylmethyl) nordesmorphine-oxalate]",Solubility in H2O,Solubility in H2O,200 µg/mL
same,"Cocaine intake, schedule not stated",[8],decreased cocaine intake in both groups
same,Cocaine self-administration under a PR schedule,[8],dose-dependently decreased cocaine self-administration
"O=C(N[C@@H]1CC[C@@]2(O)[C@H]3Cc4ccc(O)c5c4[C@@]2(CCN3CC2CC2)[C@H]1O5)c1ccc(I)cc1 [Compound 7, 6-β-(4′-Iodo)benzamido-14-hydroxy-17-(cyclopropylmethyl)nordesmorphine]",Emax,μ-opioid receptor [1]; [14],28 to 63%
same,Emax,δ-opioid receptor [9]; [16],28 to 63%
same,Overall effect on operant self-administration of 10% ethanol,[3],had an overall effect
same,"Post hoc analysis vs vehicle, operant self-administration of 10% ethanol",[3]; only a dose of 0.05 mg/kg,significantly inhibited
same,Overall effect on operant self-administration of saccharin vs vehicle,[4],did have an overall effect
same,Emax,[5],0%
"Oc1ccc2c3c1O[C@H]1c4[nH]c5c(c4C[C@@]4(O)[C@@H](C2)N(CC2CC2)CC[C@]314)C[C@@]1(O)[C@H]2Cc3ccc(O)c4c3[C@@]1(CCN2CC1CC1)[C@H]5O4 [Nor-BNI, reference compound]",Cocaine self-administration under a PR schedule,[8],decreased cocaine intake in LgA rats
"O=C(N[C@@H]1CC[C@@]2(O)[C@H]3Cc4ccc(O)c5c4[C@@]2(CCN3CC2CC2)[C@H]1O5)c1ccc(Cl)cc1 [Compound 10, 6-β-(4′-Chloro)benzamido-14-hydroxy-17-(cyclopropylmethyl)nordesmorphine]",Emax,μ-opioid receptor [1]; [14],46 ± 3.8%
same,Emax,"μ-opioid receptor [1]; read-out: Emax, μ, stimulation of [35S]GTPγS binding, percentage of basal [35S]GTPγS binding stimulation",28 to 63%
same,Emax,δ-opioid receptor [9]; [16],22 ± 1.7%
same,Emax,"δ-opioid receptor [9]; read-out: Emax, δ, stimulation of [35S]GTPγS binding, percentage of basal [35S]GTPγS binding stimulation",28 to 63%
same,Emax,"κ-opioid receptor [2]; read-out: Emax, κ, stimulation of [35S]GTPγS binding, percentage of basal [35S]GTPγS binding stimulation",28 to 63%
same,Emax,μ-opioid receptor [10],0%
same,Emax,δ-opioid receptor [11],0%
same,Emax,κ-opioid receptor [12],0%
same,melting point,,188.8 °C
same,EC50,[13],88 ± 19 nM
"CN(C(=O)c1ccc(Br)cc1)[C@H]1CC[C@@]2(O)[C@H]3Cc4ccc(O)c5c4[C@@]2(CCN3CC2CC2)[C@H]1O5.O=C(O)C(=O)O [14a—Oxalate, 6-α-(4′-Bromo)-N-methylbenzamido-14-hydroxy-17-(cyclopropylmethyl)nordesmorphine oxalate]",Solubility in H2O,Solubility in H2O,6700 µg/mL
"[D-pen2, D-pen5]-enkephalin [Compound 14, reference compound]",Emax,[5],0%
"CN(C(=O)c1ccc(C(F)(F)F)cc1)[C@@H]1CC[C@@]2(O)[C@H]3Cc4ccc(O)c5c4[C@@]2(CCN3CC2CC2)[C@H]1O5.O=C(O)C(=O)O [13b—Oxalate, 6-β-(4′-Trifluoromethyl)-N-methylbenzamido-14-hydroxy-17-(cyclopropylmethyl)nordesmorphine oxalate]",Solubility in H2O,Solubility in H2O,4700 µg/mL
"CC(C)(C)c1ccc(C(=O)N[C@@H]2CC[C@@]3(O)[C@H]4Cc5ccc(O)c6c5[C@@]3(CCN4CC3CC3)[C@H]2O6)cc1 [Compound 8, 6-(4′-t-Butyl)benzamido-14-hydroxy-17-(cyclopropylmethyl)nordesmorphine]",Overall effect on operant self-administration of 10% ethanol,[3],had an overall effect
same,"Post hoc analysis vs vehicle, operant self-administration of 10% ethanol",[3]; only a dose of 0.05 mg/kg,significantly inhibited
same,Overall effect on operant self-administration of saccharin vs vehicle,[4],did not have an overall effect
same,melting point,,151.1 °C
same,Emax,[5],0%
same,half-life at 40 μM,[6],> 112 min
same,half-life at 40 μM,[7],> 112 min
"O=C(N[C@@H]1CC[C@@]2(O)[C@H]3Cc4ccc(O)c5c4[C@@]2(CCN3CC2CC2)[C@H]1O5)c1ccc(C(F)(F)F)cc1.O=C(O)C(=O)O [Compound 5-oxalate, 6-β-(4′-Trimethylfluoro)benzamido-14-hydroxy-17-(cyclopropylmethyl)nordesmorphine-oxalate]",Solubility in H2O,Solubility in H2O,1000 µg/mL
"CN(C(=O)/C=C/c1ccoc1)[C@H]1CC[C@@]2(O)[C@H]3Cc4ccc(O)c5c4[C@@]2(CCN3CC2CC2)[C@H]1O5.O=C(O)C(=O)O (relative stereo) [20a—Oxalate, 17-Cyclopropylmethyl-3,14β-dihydroxy-4,5α-epoxy-6α-[N-methyl-trans-3-(3-furyl)acrylamido]morphinan oxalate]",solubility,Solubility in H2O; water,16000 µg/mL
"CN(C(=O)c1ccc(I)cc1)[C@H]1CC[C@@]2(O)[C@H]3Cc4ccc(O)c5c4[C@@]2(CCN3CC2CC2)[C@H]1O5.O=C(O)C(=O)O [15a—Oxalate, 6-α-(4′-Iodo)-N-methylbenzamido-14-hydroxy-17-(cyclopropylmethyl)nordesmorphine oxalate]",Solubility in H2O,Solubility in H2O,5000 µg/mL
"CN(C(=O)c1ccc(C(C)(C)C)cc1)[C@H]1CC[C@@]2(O)[C@H]3Cc4ccc(O)c5c4[C@@]2(CCN3CC2CC2)[C@H]1O5.O=C(O)C(=O)O [16a—Oxalate, 6-α-(4′-t-Butyl)-N-methylbenzamido-14-hydroxy-17-(cyclopropylmethyl)nordesmorphine oxalate]",Solubility in H2O,Solubility in H2O,3300 µg/mL
"C=C1CC[C@@]2(O)[C@H]3Cc4ccc(O)c5c4[C@@]2(CCN3CC2CC2)[C@H]1O5 [Compound 1b, nalmefene, reference compound]",Overall effect on operant self-administration of 10% ethanol,[3],had an overall effect
same,ED50,[3],~0.04 mg/kg
same,"Post hoc analysis vs vehicle, operant self-administration of 10% ethanol",[3]; [15],significantly inhibited
same,Overall effect on operant self-administration of saccharin vs vehicle,[4],did not have an overall effect
same,half-life at 40 μM,[6],20 min
same,half-life at 40 μM,[7],20 min
"CN(C(=O)c1ccc(Cl)c(Cl)c1)[C@@H]1CC[C@@]2(O)[C@H]3Cc4ccc(O)c5c4[C@@]2(CCN3CC2CC2)[C@H]1O5.O=C(O)C(=O)O [18b—Oxalate, 6-β-(3′,4′-Dichloro)-N-methylbenzamido-14-hydroxy-17-(cyclopropylmethyl)nordesmorphine oxalate]",Solubility in H2O,Solubility in H2O,16000 µg/mL
"Cc1ccc(C(=O)N[C@@H]2CC[C@@]3(O)[C@H]4Cc5ccc(O)c6c5[C@@]3(CCN4CC3CC3)[C@H]2O6)cc1 [Compound 4, 6-β-(4′-Methyl)benzamido-14-hydroxy-17-(cyclopropylmethyl) nordesmorphine]",Emax,μ-opioid receptor [10],3 ± 2.4%
same,melting point,,207.6 °C
same,Emax,[5],0%
same,"Half Life, Human liver preparation",[6],remained unchanged
same,"Half Life, Mouse liver preparation",[7],remained unchanged
"CN(C(=O)c1ccc(Cl)cc1)[C@@H]1CC[C@@]2(O)[C@H]3Cc4ccc(O)c5c4[C@@]2(CCN3CC2CC2)[C@H]1O5.O=C(O)C(=O)O [17b—Oxalate, 6-β-(4′-Chloro)-N-methylbenzamido-14-hydroxy-17-(cyclopropylmethyl)nordesmorphine oxalate]",Solubility in H2O,Solubility in H2O,6000 µg/mL
"CN(C(=O)c1ccc(Br)cc1)[C@@H]1CC[C@@]2(O)[C@H]3Cc4ccc(O)c5c4[C@@]2(CCN3CC2CC2)[C@H]1O5.O=C(O)C(=O)O [14b. Oxalate, 6-β-(4′-Bromo)-N-methylbenzamido-14-hydroxy-17-(cyclopropylmethyl)nordesmorphine Oxalate]",Solubility in H2O,Solubility in H2O,20000 µg/mL
"O=C1CC[C@@]2(O)[C@H]3Cc4ccc(O)c5c4[C@@]2(CCN3CC2CC2)[C@H]1O5 [Compound 1a, naltrexone, reference compound]",ED50,[3],~0.5 mg/kg
same,"Cocaine intake, schedule not stated",[8],decreased cocaine intake in both groups
